Experimental data reported in patent publication US10316049B2, “Tank-binding kinase inhibitor compounds” (Gilead Sciences, Inc., priority 2015, dated 2019).

Assays:
TBK1 = biological target: T1, TBK1 (Homo sapiens, UniProt Q9UHD2); experiment: TR-FRET enzymatic activity assay, TBK1; type: biochemical; note: full length recombinant TBK1 at 2.5 nM
T1 construct: TBK1 and IKKε were expressed and purified as full length recombinant proteins; made in house
T1 sequence (Q9UHD2 1-729): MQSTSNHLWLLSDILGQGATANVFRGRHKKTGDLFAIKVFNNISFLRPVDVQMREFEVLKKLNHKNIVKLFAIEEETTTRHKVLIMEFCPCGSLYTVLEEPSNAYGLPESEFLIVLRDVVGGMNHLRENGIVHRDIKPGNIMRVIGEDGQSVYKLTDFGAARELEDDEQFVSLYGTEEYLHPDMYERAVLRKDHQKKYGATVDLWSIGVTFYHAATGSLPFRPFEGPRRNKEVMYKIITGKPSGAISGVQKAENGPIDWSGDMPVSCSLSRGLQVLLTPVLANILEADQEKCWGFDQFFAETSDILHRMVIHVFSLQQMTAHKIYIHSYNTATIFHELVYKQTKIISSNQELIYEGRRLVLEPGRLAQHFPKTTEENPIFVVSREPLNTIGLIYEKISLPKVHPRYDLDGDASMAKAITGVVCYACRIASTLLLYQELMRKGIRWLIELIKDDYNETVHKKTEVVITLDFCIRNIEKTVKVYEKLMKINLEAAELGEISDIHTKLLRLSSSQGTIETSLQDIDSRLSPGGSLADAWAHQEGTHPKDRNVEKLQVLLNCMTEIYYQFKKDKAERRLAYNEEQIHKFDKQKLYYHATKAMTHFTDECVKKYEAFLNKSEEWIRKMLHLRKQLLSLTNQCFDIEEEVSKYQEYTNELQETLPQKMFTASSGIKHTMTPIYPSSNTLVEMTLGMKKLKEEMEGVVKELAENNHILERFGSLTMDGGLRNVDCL
Description: (§1) Biological Assay for TBK1 and IKKε:
(§2) Enzymatic activity of IKKε and TBK1 was measured using a homogeneous time resolved fluorescence resonance energy transfer (TR-FRET) assay that monitors enzyme dependent phosphorylation of a biotinylated serine/threonine peptide substrate. An increase in the amount of phosphorylated peptide results in an increase in TR-FRET signal. TBK1 and IKKε were expressed and purified as full length recombinant proteins. Detection reagents for the assay were purchased from Cisbio. […] After an assay reaction time of 240 minutes at 25° C., reactions were terminated with EDTA.
(§3) Amount of phosphorylated peptide was determined by the addition of 125 nM streptavidin XL665 and europium cryptate labeled anti-phospho monoclonal antibody and the resulting TR-FRET signal was recorded on an Envision plate reader (Ex: 340 nm; Em: 615/665 nm; 100 μs delay and 200 μs read window). Data was normalized based on a positive (1 μM Staurosporine) and negative (DMSO) controls and IC50 values calculated from the fit of the dose-response curves to a four-parameter equation. All IC50 values represent geometric mean values of a minimum of four determinations. These assays generally produced results within 3-fold of the reported mean.

IKKε = biological target: T2, IKKε (Homo sapiens, UniProt Q14164); experiment: TR-FRET enzymatic activity assay, IKKε; type: biochemical; conditions: read-out: IKKϵ IC50; note: full length recombinant IKKε at 0.3 nM
T2 construct: TBK1 and IKKε were expressed and purified as full length recombinant proteins; made in house
T2 sequence (Q14164 1-716): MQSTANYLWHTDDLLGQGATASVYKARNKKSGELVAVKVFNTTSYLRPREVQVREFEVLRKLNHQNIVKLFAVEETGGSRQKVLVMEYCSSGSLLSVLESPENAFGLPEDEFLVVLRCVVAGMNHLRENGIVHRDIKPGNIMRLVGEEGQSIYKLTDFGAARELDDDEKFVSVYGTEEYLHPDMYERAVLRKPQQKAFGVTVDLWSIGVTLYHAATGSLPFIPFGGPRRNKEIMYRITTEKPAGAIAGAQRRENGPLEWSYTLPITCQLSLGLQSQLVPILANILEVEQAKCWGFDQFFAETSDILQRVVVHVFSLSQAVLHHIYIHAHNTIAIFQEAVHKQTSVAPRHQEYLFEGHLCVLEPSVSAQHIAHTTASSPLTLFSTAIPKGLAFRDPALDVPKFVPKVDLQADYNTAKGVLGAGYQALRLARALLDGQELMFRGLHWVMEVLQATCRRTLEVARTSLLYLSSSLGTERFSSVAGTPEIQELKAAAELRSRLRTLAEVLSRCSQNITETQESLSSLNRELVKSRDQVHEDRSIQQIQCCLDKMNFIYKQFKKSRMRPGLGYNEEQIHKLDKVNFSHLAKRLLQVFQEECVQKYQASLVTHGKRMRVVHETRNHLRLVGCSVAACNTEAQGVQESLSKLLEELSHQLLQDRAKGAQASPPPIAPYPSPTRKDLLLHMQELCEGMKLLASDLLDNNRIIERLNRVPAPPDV
Description: as §1
as §2, with “An increase in the amount of phosphorylated peptide results in an increase in TR-FRET signal.” left out
as §3, with “determinations.” for “determinations. These assays generally produced results within 3-fold of the reported mean.”

IC50 (TBK1) | IC50 (IKKε) | Compound
44.1 nM | 266 nM | CCC[C@H]1C[C@@H]1C(=O)Nc1cc(-c2ccc(OC3CCOCC3)c(C#N)c2)ccn1 (relative stereo) [Example 91, (1,2-trans)-N-(4-(3-cyano-4-((tetrahydro-2H-pyran-4-yl)oxy)phenyl)pyridin-2-yl)-2-propylcyclopropane-1-carboxamide]
> 1000 nM | > 1000 nM | N#Cc1cc(-c2ccnc(NC(=O)[C@H]3C[C@@H]3c3ccc(OC(F)(F)F)cc3)c2)ccc1OC1CCOCC1 (relative stereo) [Example 99, (1,2-trans)-N-(4-(3-cyano-4-((tetrahydro-2H-pyran-4-yl)oxy)phenyl)pyridin-2-yl)-2-(4-(trifluoromethoxy)phenyl)cyclopropane-1-carboxamide]
20.3 nM | 130 nM | N#Cc1cc(-c2ccnc(NC(=O)[C@H]3C[C@@H]3c3cccnc3)c2)ccc1OC1CCOCC1 (relative stereo) [Example 100, (1,2-trans)-N-(4-(3-cyano-4-((tetrahydro-2H-pyran-4-yl)oxy)phenyl)pyridin-2-yl)-2-(pyridin-3-yl)cyclopropane-1-carboxamide]
96.8 nM | > 1000 nM | N#Cc1cc(-c2ccnc(NC(=O)[C@H]3C[C@@H]3C(F)F)c2)ccc1OC1CCOCC1 (relative stereo) [Example 101, (1,2-trans)-N-(4-(3-cyano-4-((tetrahydro-2H-pyran-4-yl)oxy)phenyl)pyridin-2-yl)-2-(difluoromethyl)cyclopropane-1-carboxamide]
33.4 nM | 196 nM | N#Cc1cc(-c2ccnc(NC(=O)[C@@H]3C[C@H]3c3ccno3)c2)ccc1OC1CCOCC1 (relative stereo) [Example 102, trans-1,2-N-(4-(3-cyano-4-((tetrahydro-2H-pyran-4-yl)oxy)phenyl)pyridin-2-yl)-2-(isoxazol-5-yl)cyclopropane-1-carboxamide]
181 nM | 471 nM | N#Cc1cc(-c2ccnc(NC(=O)[C@@H]3C[C@H]3C#N)c2)ccc1OC1CCOCC1 (relative stereo) [Example 116, (1,2-Trans)-2-cyano-N-(4-(3-cyano-4-((tetrahydro-2H-pyran-4-yl)oxy)phenyl)pyridin-2-yl)cyclopropane-1-carboxamide]
99.3 nM | > 1000 nM | N#Cc1cc(-c2ccnc(NC(=O)[C@H]3C[C@@H]3c3cccc(F)c3)c2)ccc1OC1CCOCC1 (relative stereo) [Example 119, (1,2-Trans)-N-(4-(3-cyano-4-((tetrahydro-2H-pyran-4-yl)oxy)phenyl)pyridin-2-yl)-2-(3-fluorophenyl)cyclopropane-1-carboxamide]
29.1 nM | 181 nM | Cn1cc([C@@H]2C[C@H]2C(=O)Nc2cc(-c3ccc(OC4CCOCC4)c(C#N)c3)ccn2)cn1 (relative stereo) [Example 120, (1,2-Trans)-N-(4-(3-cyano-4-((tetrahydro-2H-pyran-4-yl)oxy)phenyl)pyridin-2-yl)-2-(1-methyl-1H-pyrazol-4-yl)cyclopropane-1-carboxamide]
938 nM | > 1000 nM | N#Cc1cc(-c2ccnc(NC(=O)[C@H]3C[C@@H]3c3cscn3)c2)ccc1OC1CCOCC1 (relative stereo) [Example 123, (1,2-Trans)-N-(4-(3-cyano-4-((tetrahydro-2H-pyran-4-yl)oxy)phenyl)pyridin-2-yl)-2-(thiazol-4-yl)cyclopropane-1-carboxamide]
12.2 nM | 33.2 nM | N#Cc1cc(-c2ccnc(NC(=O)[C@@H]3C[C@H]3c3cccnc3)c2)ccc1O[C@H]1CCN(C(=O)CO)C[C@H]1F (relative stereo) [Example 127]
70.5 nM | 636 nM | N#Cc1cc(-c2ccnc(NC(=O)[C@@H]3C[C@H]3c3ccco3)c2)ccc1OC1CCOCC1 (relative stereo) [Example 150, Trans-N-(4-(3-cyano-4-((tetrahydro-2H-pyran-4-yl)oxy)phenyl)pyridin-2-yl)-2-(furan-2-yl)cyclopropane-1-carboxamide]
75.6 nM | 200 nM | N#Cc1cc(-c2ccnc(NC(=O)[C@@H]3C[C@H]3c3ccncc3)c2)ccc1OC1CCOCC1 (relative stereo) [Example 151, Trans-N-(4-(3-cyano-4-((tetrahydro-2H-pyran-4-yl)oxy)phenyl)pyridin-2-yl)-2-(pyridin-4-yl)cyclopropane-1-carboxamide]
18.9 nM | 31.4 nM | Cn1cc([C@@H]2C[C@H]2C(=O)Nc2cc(-c3ccc(O[C@H]4CCN(C(=O)CO)C[C@H]4F)c(C#N)c3)ccn2)cn1 (single isomer, unassigned) [Example 125]
51.4 nM | 117 nM | N#Cc1cc(-c2ccnc(NC(=O)[C@@H]3C[C@@H]3c3ccccc3)c2)ccc1O[C@H]1CCN(C(=O)CO)C[C@H]1F (stereo in doubt) [Example 71, (1,2-cis)-N-(4-(3-Cyano-4-(((3R,4S)-3-fluoro-1-(2-hydroxyacetyl)piperidin-4-yl)oxy)phenyl)pyridin-2-yl)-2-phenylcyclopropane-1-carboxamide]
607 nM | 857 nM | N#Cc1cc(-c2ccnc(NC(=O)[C@@H]3C[C@@H]3C(N)=O)c2)ccc1O[C@H]1CCN(C(=O)CO)C[C@H]1F (stereo in doubt) [Example 82, (1,2-cis)-N1-(4-(3-cyano-4-(((3R,4S)-3-fluoro-1-(2-hydroxyacetyl)piperidin-4-yl)oxy)phenyl)pyridin-2-yl)cyclopropane-1,2-dicarboxamide]
333 nM | 135 nM | N#Cc1cc(-c2ccnc(NC(=O)[C@@H]3CC3C(=O)O)c2)ccc1O[C@H]1CCN(C(=O)CO)C[C@H]1F (stereo in doubt) [Example 84, (1,2-trans)-2-((4-(3-cyano-4-(((3R,4S)-3-fluoro-1-(2-hydroxyacetyl)piperidin-4-yl)oxy)phenyl)pyridin-2-yl)carbamoyl)cyclopropane-1-carboxylic acid]
4.5 nM | 2.4 nM | Cn1cc(C2C[C@H]2C(=O)Nc2cc(-c3ccc(O[C@H]4CCN(C(=O)CO)CC4(F)F)c(C#N)c3)ccn2)cn1 (stereo in doubt) [Example 89, (1,2-trans)-N-(4-(3-cyano-4-(((S)-3,3-difluoro-1-(2-hydroxyacetyl)piperidin-4-yl)oxy)phenyl)pyridin-2-yl)-2-(1-methyl-1H-pyrazol-4-yl)cyclopropane-1-carboxamide]
755 nM | 331 nM | N#Cc1cc(-c2ccnc(NC(=O)C3CCCCC3)c2)ccc1OC1CCOCC1 [Example 1, N-(4-(3-cyano-4-((tetrahydro-2H-pyran-4-yl)oxy)phenyl)pyridin-2-yl)cyclohexanecarboxamide]
